Experimental data from BindingDB's records for doi:10.1021/jm1011319 (AstraZeneca, 2011).

Assays:
[1] = target: T1, Signal transducer and activator of transcription 3 (Homo sapiens, UniProt P40763); test: Inhibition of Stat3 phosphorylation in human SET2 cells after 1 hr by Western blotting
[2] = target: T1, Signal transducer and activator of transcription 3; test: Inhibition of Stat3 phosphorylation in human HEL cells after 1 hr by Western blotting
[3] = target: T2, Signal transducer and activator of transcription 5A (Homo sapiens, UniProt P42229); test: Inhibition of Stat5 phosphorylation in human SET2 cells after 1 hr by Western blotting
T2 sequence (P42229 whole entry): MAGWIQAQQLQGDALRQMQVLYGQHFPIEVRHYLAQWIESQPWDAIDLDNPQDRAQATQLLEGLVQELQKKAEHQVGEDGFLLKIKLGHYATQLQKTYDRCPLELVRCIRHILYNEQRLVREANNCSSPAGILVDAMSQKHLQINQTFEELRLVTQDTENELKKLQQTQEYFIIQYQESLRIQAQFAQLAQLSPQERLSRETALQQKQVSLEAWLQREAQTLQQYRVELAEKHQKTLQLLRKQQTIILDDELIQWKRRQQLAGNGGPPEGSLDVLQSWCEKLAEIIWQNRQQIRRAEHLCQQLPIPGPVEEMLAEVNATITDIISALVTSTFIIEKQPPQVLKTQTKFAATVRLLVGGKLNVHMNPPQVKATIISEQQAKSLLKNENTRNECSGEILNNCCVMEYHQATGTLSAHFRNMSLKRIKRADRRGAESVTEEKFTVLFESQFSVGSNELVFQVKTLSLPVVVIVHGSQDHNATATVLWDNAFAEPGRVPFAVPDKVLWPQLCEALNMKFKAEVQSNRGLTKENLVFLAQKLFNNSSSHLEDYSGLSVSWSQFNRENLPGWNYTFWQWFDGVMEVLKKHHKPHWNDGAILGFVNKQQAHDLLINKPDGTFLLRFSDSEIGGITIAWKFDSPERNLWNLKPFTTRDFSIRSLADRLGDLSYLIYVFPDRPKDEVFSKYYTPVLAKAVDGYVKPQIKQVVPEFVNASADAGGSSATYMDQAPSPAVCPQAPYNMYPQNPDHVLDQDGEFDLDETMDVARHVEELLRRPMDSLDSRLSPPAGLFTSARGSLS

[4] = target: T2, Signal transducer and activator of transcription 5A; test: Inhibition of Stat5 phosphorylation in human HEL cells after 1 hr by Western blotting

T1 sequence (P40763 whole entry): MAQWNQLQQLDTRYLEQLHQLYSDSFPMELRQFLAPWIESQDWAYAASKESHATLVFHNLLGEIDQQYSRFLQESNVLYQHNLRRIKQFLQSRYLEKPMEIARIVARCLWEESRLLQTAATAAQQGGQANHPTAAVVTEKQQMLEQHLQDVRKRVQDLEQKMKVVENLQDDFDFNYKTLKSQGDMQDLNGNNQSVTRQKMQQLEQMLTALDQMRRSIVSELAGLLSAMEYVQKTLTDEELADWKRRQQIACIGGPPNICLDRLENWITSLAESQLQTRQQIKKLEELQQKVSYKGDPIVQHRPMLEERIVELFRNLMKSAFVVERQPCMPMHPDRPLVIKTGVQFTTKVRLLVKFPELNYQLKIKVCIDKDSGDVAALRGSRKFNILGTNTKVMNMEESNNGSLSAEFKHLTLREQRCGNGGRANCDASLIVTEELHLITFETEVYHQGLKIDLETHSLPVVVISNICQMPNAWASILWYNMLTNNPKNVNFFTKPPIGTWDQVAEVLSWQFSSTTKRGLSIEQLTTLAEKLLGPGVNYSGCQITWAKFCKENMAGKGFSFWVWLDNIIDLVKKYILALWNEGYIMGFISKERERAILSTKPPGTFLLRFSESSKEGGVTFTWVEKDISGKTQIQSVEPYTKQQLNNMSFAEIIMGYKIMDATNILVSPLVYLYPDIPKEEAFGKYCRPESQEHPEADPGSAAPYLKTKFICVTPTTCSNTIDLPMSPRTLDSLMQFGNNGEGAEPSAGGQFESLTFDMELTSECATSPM

IC50 [1]: 23 nM
IC50 [2]: 80 nM
IC50 [3]: 25 nM
IC50 [4]: 41 nM
SMILES: Cc1cc(Nc2nc(N[C@@H](C)c3ncc(F)cn3)ncc2Cl)[nH]n1 [5-Chloro-N2-[(1S)-1-(5-fluoropyrimidin-2-yl)ethyl]-N4-(5-methyl-1H-pyrazol-3-yl)pyrimidine-2,4-diamine]
